Experiment: Solid-form stability under stressed conditions (temperature/relative humidity)
Format: physicochemical
Conditions: for at least four weeks
Procedure: Form Z of acetic acid solvated hydrate of ponatinib hydrochloride is stable under stressed conditions of about 40° C./75% RH and about 25° C./97% RH for at least four weeks.

Question: For `Cc1ccc(C(=O)Nc2ccc(CN3CCN(C)CC3)c(C(F)(F)F)c2)cc1C#Cc1cnc2cccnn12` [3-(imidazo[1,2-b]pyridazin-3-ylethynyl)-4-methyl-N-{4-[(4-methylpiperazin-1-yl)methyl]-3-(trifluoromethyl)phenyl}benzamide], which “stability under stressed conditions” value (about 25° C./97% RH) is on record?
Answer: Its value is “stable”.

Question: And the “stability under stressed conditions” value (about 40° C./75% RH)?
Answer: The value was “stable”.

From US12030886B2, “Form of ponatinib” (MACFARLAN SMITH LIMITED, priority 2018, dated 2024)
